Active and inactive are the calls of the source. No cut-off for these calls is given here.
Experiments:
Mu-type opioid receptor = Mu-type opioid receptor (Mus musculus, UniProt P42866); assay: Displacement of [3H]DAMGO from mouse mu opioid receptor in whole brain without cerebellum
[1] = biological target: Delta-type opioid receptor (Mus musculus, UniProt P32300); assay: Displacement of [3H]DPDPE from mouse delta opioid receptor in whole brain without cerebellum
[2] = biological target: Kappa-type opioid receptor (Cavia porcellus, UniProt P41144); assay: Displacement of [3H]U69,593 from guinea pig kappa opioid receptor in cerebellum
[3] = Selectivity ratio of Ki for guinea pig kappa opioid receptor to mouse mu opioid receptor
Mus musculus [4] = species: Mus musculus; assay: Selectivity ratio of Ki for mouse delta opioid receptor to mouse mu receptor
Mus musculus [5] = assay: Antinociceptive activity in sc dosed mouse assessed as inhibition of acetic acid-induced writhing administered 15 mins before acetic acid challenge measured after 10 mins relative to control; type: functional
Mus musculus [6] = assay: Ratio of morphine ED50 to compound ED50 for antinociceptive activity in sc dosed mouse assessed as inhibition of acetic acid-induced writhing administered 15 mins before acetic acid challenge measured after 10 mins; type: functional

Sequence of Kappa-type opioid receptor (P41144 whole entry): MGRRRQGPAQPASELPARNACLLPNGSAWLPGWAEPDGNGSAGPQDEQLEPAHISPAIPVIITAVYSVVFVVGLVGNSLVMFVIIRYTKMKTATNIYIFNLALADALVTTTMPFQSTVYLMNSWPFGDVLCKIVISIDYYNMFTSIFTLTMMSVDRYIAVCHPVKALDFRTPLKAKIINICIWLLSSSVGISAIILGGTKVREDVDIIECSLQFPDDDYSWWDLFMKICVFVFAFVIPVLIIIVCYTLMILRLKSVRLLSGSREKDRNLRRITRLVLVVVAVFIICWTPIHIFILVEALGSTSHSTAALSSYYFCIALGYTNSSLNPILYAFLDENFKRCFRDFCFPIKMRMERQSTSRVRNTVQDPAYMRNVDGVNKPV
Sequence of Delta-type opioid receptor (P32300 whole entry): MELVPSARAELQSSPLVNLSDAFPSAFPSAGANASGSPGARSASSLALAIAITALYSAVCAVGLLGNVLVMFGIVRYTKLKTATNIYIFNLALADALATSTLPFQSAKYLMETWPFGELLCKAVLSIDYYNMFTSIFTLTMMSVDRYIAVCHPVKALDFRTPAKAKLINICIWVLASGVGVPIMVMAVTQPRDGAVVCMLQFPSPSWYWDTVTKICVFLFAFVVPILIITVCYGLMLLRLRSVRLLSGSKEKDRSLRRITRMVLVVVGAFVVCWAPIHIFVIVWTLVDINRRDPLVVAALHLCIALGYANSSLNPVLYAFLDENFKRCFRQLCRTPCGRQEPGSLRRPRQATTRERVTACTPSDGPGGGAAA
Sequence of Mu-type opioid receptor (P42866 whole entry): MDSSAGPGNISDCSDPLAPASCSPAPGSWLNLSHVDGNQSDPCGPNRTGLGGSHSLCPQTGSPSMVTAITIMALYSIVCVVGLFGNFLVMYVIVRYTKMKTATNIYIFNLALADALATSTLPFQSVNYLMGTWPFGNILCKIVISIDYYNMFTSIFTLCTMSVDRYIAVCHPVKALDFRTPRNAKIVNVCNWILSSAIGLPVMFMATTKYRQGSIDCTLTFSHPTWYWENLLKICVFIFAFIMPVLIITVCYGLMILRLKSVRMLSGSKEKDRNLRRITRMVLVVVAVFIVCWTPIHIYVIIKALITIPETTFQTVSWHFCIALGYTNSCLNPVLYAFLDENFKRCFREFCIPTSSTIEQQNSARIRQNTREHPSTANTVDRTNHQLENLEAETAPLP

## CN1CC[C@]23c4c5ccc(O)c4O[C@H]2[C@]2(CC[C@@]3(O)[C@H]1C5)O[C@H]1CO[C@@H]3N1[C@H]2O[C@]31CC[C@@]2(O)[C@H]3Cc4ccc(O)c5c4[C@@]2(CCN3C)[C@H]1O5
Mu-type opioid receptor
  Ki: 2.09 nM
[1]
  Ki: 52.9 nM
[2]
  Ki: 337 nM
[3]
  Ratio Ki: 161
Mus musculus [4]
  Ratio Ki: 25.3
Mus musculus [5]
  ED50: 0.14 mg/kg
  inhibition: Dose-dependent effect
Mus musculus [6]
  Ratio ED50: 4

## Oc1ccc2c3c1O[C@H]1[C@]4(CC[C@@]5(O)[C@@H](C2)N(CC2CCC2)CC[C@]315)O[C@H]1CO[C@@H]2N1[C@H]4O[C@]21CC[C@@]2(O)[C@H]3Cc4ccc(O)c5c4[C@@]2(CCN3CC2CCC2)[C@H]1O5
Mu-type opioid receptor
  Ki: 2.6 nM
[1]
  Ki: 50 nM
[2]
  Ki: 176 nM
[3]
  Ratio Ki: 67.7
Mus musculus [4]
  Ratio Ki: 19.2

## CC(C)CN1CC[C@]23c4c5ccc(O)c4O[C@H]2[C@]2(CC[C@@]3(O)[C@H]1C5)O[C@H]1CO[C@@H]3N1[C@H]2O[C@]31CC[C@@]2(O)[C@H]3Cc4ccc(O)c5c4[C@@]2(CCN3CC(C)C)[C@H]1O5
Mu-type opioid receptor
  Ki: 25.3 nM
[1]
  Ki: > 1000 nM
[2]
  Ki: 119 nM
[3]
  Ratio Ki: 4.7

## Oc1ccc2c3c1O[C@@H]1[C@]34CCN(CC3CC3)[C@H](C2)[C@]4(O)CC[C@@]12C=N[C@@H]([C@]1(O)CC[C@@]3(O)[C@H]4Cc5ccc(O)c6c5[C@@]3(CCN4CC3CC3)[C@H]1O6)O2
Mu-type opioid receptor
  Ki: 1.03 nM
[1]
  Ki: 39.6 nM
[2]
  Ki: 1.66 nM
[3]
  Ratio Ki: 1.61
Mus musculus [4]
  Ratio Ki: 38.4

## C=CCN1CC[C@]23c4c5ccc(O)c4O[C@H]2C(=O)CC[C@@]3(O)[C@H]1C5
Mus musculus [5]
  inhibition: inactive

## Oc1ccc2c3c1O[C@@H]1[C@]34CCN(CC3CC3)[C@H](C2)[C@]4(O)CC[C@@]12C=N[C@H]([C@]1(O)CC[C@@]3(O)[C@H]4Cc5ccc(O)c6c5[C@@]3(CCN4CC3CC3)[C@H]1O6)O2
Mu-type opioid receptor
  Ki: 1.9 nM
[1]
  Ki: 53.7 nM
[2]
  Ki: 1.16 nM
[3]
  Ratio Ki: 0.61
Mus musculus [4]
  Ratio Ki: 28.3

## Oc1ccc2c3c1O[C@H]1[C@]4(CC[C@@]5(O)[C@@H](C2)N(CC2CC2)CC[C@]315)O[C@H]1CO[C@@H]2N1[C@H]4O[C@]21CC[C@@]2(O)[C@H]3Cc4ccc(O)c5c4[C@@]2(CCN3CC2CC2)[C@H]1O5
Mu-type opioid receptor
  Ki: 0.48 nM
[1]
  Ki: 16.2 nM
[2]
  Ki: 2.75 nM
[3]
  Ratio Ki: 5.73
Mus musculus [4]
  Ratio Ki: 33.6

## Oc1ccc2c3c1O[C@H]1[C@]4(CC[C@@]5(O)[C@@H](C2)N(CC2CC2)CC[C@]315)O[C@@H]1CO[C@H]2N1[C@@H]4O[C@]21CC[C@@]2(O)[C@H]3Cc4ccc(O)c5c4[C@@]2(CCN3CC2CC2)[C@H]1O5
Mu-type opioid receptor
  Ki: 38.2 nM
[1]
  Ki: > 1000 nM
[2]
  Ki: 247 nM
[3]
  Ratio Ki: 6.47

## Oc1ccc2c(c1)[C@]13CCN(CC4CC4)[C@H](C2)[C@]1(O)CC[C@@]1(C3)O[C@H]2CO[C@@H]3N2[C@H]1O[C@]31CC[C@@]2(O)[C@H]3Cc4ccc(O)cc4[C@@]2(CCN3CC2CC2)C1
Mu-type opioid receptor
  Ki: 0.771 nM
[1]
  Ki: 5.98 nM
[2]
  Ki: 8.67 nM
[3]
  Ratio Ki: 11.2
Mus musculus [4]
  Ratio Ki: 7.76

## Oc1ccc2c3c1O[C@H]1[C@]4(CC[C@H]5[C@@H](C2)N(CC2CC2)CC[C@@]351)O[C@H]1CO[C@@H]2N1[C@H]4O[C@]21CC[C@H]2[C@H]3Cc4ccc(O)c5c4[C@@]2(CCN3CC2CC2)[C@H]1O5
Mu-type opioid receptor
  Ki: 0.719 nM
[1]
  Ki: 7.8 nM
[2]
  Ki: 6.36 nM
[3]
  Ratio Ki: 8.84
Mus musculus [4]
  Ratio Ki: 10.8
